The source of these data is patent EP0352863A2, “1,4-Dihydropyridine dicarboxylic acid derivatives” (ZAMBON GROUP S.p.A., priority 1988, dated 1990).

The structures appear in SMILES notation. pIC50: −log10 of the molar value. Where two headings read alike, the source gives them in different places.

For one assay, the target named is T1, beta₂ lung receptor (Mus musculus, UniProt P18762).
T1 construct: Ki (nM) mouse lung beta₂ receptors; from tissue; host or cells: mouse lung
Kind of assay: binding test, beta2 lung receptors. The text has this: (§1) Moreover, the beta-blocking activity has been tested by means of the binding test both towards beta₁ heart receptors and towards beta₂ lung receptor in mouse according to the methods described in the J. Biol. Chem., 253, 5090, (1978) and in the Br. j. Pharmacol., 68, 57, (1980).

Another assay concerns anesthetized dog. Put plainly: heart rate and mean arterial pressure in the anesthetized dog. Conditions: doses of from 100 to 400 ug/kg. It counts as in vivo. The method, then:
The compounds of formula I produce antihypertensive effects in mouse and dog with concomitant reduction of the heart rate.
For example, in the anesthetized dog, compound 1 caused a heart rate reduction of from 9 to 23% and a reduction of the mean arterial pressure of from 3 to 15% at doses of from 100 to 400 ug/kg; at the same doses diastereoisomer A caused a heart rate reduction of from 17 to 30% and a mean arterial pressure reduction of from 12 to 25%, respectively.

Another assay concerns the target T2, beta₁ heart receptors (Mus musculus, UniProt P34971).
T2 construct: from tissue; host or cells: mouse heart
Put plainly: binding test, beta1 heart receptors.
Excerpt: as §1

A further assay relates to rabbit mesenteric artery. Put plainly: calcium-antagonist activity, rabbit mesenteric artery test (antagonism of 3 mM Ca++ in Krebs depolarizer). Conditions: Ca++ submaximal concentration 3mM, read-out: IC₅₀. As to the method: Calcium-antagonist activity of the compounds of formula I has been tested as capability of antagonizing the effect of Ca⁺⁺ submaximal concentrations (3mM) on preparations of rabbit mesenteric artery in Krebs depolarizer, prepared according to Towart "J. Cardiovasc. Pharmacol. 4, 895, (1982)".
The compounds of this invention, tested as calcium antagonist agents on the rabbit mesnteric artery show an IC₅₀ of from 10 to 200 (nM); Ki affinity for beta₁ receptors is of from 30 to 2000 (nM) and for beta₂ receptors is of from 20 to 5000 (nM).

T2 sequence (P34971 whole entry): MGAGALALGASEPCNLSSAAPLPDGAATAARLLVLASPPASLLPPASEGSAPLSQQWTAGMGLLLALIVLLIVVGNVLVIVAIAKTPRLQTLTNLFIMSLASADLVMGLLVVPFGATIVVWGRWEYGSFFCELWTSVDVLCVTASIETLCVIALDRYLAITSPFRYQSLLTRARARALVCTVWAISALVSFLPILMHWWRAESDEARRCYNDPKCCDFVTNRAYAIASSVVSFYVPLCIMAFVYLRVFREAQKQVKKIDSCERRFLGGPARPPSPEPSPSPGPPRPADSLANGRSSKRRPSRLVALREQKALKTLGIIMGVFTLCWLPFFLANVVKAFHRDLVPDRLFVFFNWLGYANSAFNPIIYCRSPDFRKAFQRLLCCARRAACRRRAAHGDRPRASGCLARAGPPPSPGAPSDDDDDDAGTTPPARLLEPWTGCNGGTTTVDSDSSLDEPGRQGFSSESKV
T1 sequence (P18762 whole entry): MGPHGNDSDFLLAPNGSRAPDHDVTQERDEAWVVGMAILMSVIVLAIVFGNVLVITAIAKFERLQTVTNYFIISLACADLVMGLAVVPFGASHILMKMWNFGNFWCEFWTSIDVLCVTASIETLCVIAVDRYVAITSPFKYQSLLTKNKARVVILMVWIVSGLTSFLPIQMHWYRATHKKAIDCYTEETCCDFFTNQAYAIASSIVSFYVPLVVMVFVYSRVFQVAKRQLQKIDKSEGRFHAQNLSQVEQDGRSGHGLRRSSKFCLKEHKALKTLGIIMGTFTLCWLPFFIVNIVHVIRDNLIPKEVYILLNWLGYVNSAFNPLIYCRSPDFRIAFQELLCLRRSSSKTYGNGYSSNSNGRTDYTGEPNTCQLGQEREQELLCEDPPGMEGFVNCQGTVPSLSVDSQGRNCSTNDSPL

On to `CCOC(=O)C1=C(C)NC(CN(C)CC(C)(C)NCC(O)COc2ccccc2OC)=C(C(=O)OCC)C1c1cccc([N+](=O)[O-])c1` (single isomer, unassigned) [diastereoisomer A], for which the inhibition constant (Ki) – broadly, the equilibrium dissociation constant of an inhibitor or competing ligand from its target – on beta₂ lung receptor is 2050 nM; at beta₁ heart receptors, 600 nM. Besides, the “duration of hypotensive effect and bradycardia” value with anesthetized dog was “lasting over five hours”. For the same compound, the pIC50 in the assay with rabbit mesenteric artery was 7.82.
For the compound `CCOC(=O)C1=C(C)NC(CN(C)CC(C)(C)NCC(O)COc2ccccc2OC)=C(C(=O)OCC)C1c1cccc([N+](=O)[O-])c1` (single isomer, unassigned) [diastereoisomer B], the values for the inhibition constant (Ki) on beta₂ lung receptor and on beta₁ heart receptors were 560 nM and 165 nM, respectively. For the same compound, in the assay on rabbit mesenteric artery, the pIC50 is 6.92.
As to `CCOC(=O)C1=C(C)NC(CN(C)CC(C)(C)NCC(O)COc2ccccc2OC)=C(C(=O)OCC)C1c1cccc([N+](=O)[O-])c1` (stereo not shown) [Compound 1, ethyl 1,4-dihydro-6-methyl-2-(N-methyl-N-(2-(2-hydroxy-3-(2-methoxyphenoxy)-propylamino)-2-methylpropyl)aminomethyl)-4-(3-nitrophenyl)-3,5-pyridinedicarboxylate], the pIC50 in the assay with rabbit mesenteric artery (Oryctolagus cuniculus) is 7.33.
As to `CC(C)NCC(O)COc1ccc(CC(N)=O)cc1` (stereo not shown) [atenolol, reference compound], the Ki worked out at 18000 nM on beta₂ lung receptor and 840 nM at beta₁ heart receptors.
